Measured values published in ChEMBL document CHEMBL1139786, “Anti-tubercular agents. Part IV: Synthesis and antimycobacterial evaluation of nitroheterocyclic-based 1,2,4-benzothiadiazines” (2007).
Converted amounts (≈) assume the structure as drawn.

Legend:
Format in all cases: functional
[1] = test system: Mycobacterium tuberculosis; test: Antibacterial activity against Mycobacterium tuberculosis H37Rv by nitrate reductase assay
Escherichia coli = test: Antibacterial activity against Escherichia coli MTCC 443 by broth dilution method
Bacillus subtilis = test: Antibacterial activity against Bacillus subtilis MTCC 441 by broth dilution method
Staphylococcus aureus = test: Antibacterial activity against Staphylococcus aureus MTCC 96 by broth dilution method
Pseudomonas aeruginosa = test: Antibacterial activity against Pseudomonas aeruginosa MTCC 1688 by broth dilution method

| Structure (SMILES) | MIC [1] [µg/mL] | MIC (Escherichia coli) [µg/mL] | MIC (Bacillus subtilis) [µg/mL] | MIC (Staphylococcus aureus) [µg/mL] | MIC (Pseudomonas aeruginosa) [µg/mL] |
| --- | --- | --- | --- | --- | --- |
| CN1C(NNC(=O)c2ccc([N+](=O)[O-])o2)=NS(=O)(=O)c2ccccc21 | 32 (≈ 87.6 µM) | 18.8 (≈ 51.3 µM) | 18.8 (≈ 51.3 µM) | 37.5 (≈ 103 µM) | 150 (≈ 411 µM) |
| CN1C(N/N=C\c2ccc([N+](=O)[O-])s2)=NS(=O)(=O)c2ccccc21 | 8 (≈ 21.9 µM) | 37.5 (≈ 103 µM) | 18.8 (≈ 51.3 µM) | 37.5 (≈ 103 µM) | 150 (≈ 411 µM) |
| O=[N+]([O-])c1ccc(/C=N\NC2=NS(=O)(=O)c3ccccc3N2c2ccccc2)s1 | 4 (≈ 9.36 µM) | 18.8 (≈ 43.9 µM) | 37.5 (≈ 87.7 µM) | 37.5 (≈ 87.7 µM) | 150 (≈ 351 µM) |
| CCN1C(N/N=C\c2ccc([N+](=O)[O-])o2)=NS(=O)(=O)c2ccccc21 | 8 (≈ 22 µM) | 18.8 (≈ 51.6 µM) | 9.37 (≈ 25.8 µM) | 37.5 (≈ 103 µM) | 150 (≈ 413 µM) |
| CCN1C(NNC(=O)c2ccc([N+](=O)[O-])o2)=NS(=O)(=O)c2ccccc21 | 32 (≈ 84.4 µM) | 18.8 (≈ 49.4 µM) | 18.8 (≈ 49.4 µM) | 150 (≈ 395 µM) | 150 (≈ 395 µM) |
| CN1C(NNC(=O)c2ccc([N+](=O)[O-])o2)=NS(=O)(=O)c2cc(Cl)ccc21 | 4 (≈ 10 µM) | 18.8 (≈ 46.9 µM) | 18.8 (≈ 46.9 µM) | 37.5 (≈ 93.8 µM) | 150 (≈ 375 µM) |
| CCN1C(N/N=C\c2ccc([N+](=O)[O-])s2)=NS(=O)(=O)c2ccccc21 | 16 (≈ 42.2 µM) | 18.8 (≈ 49.4 µM) | 18.8 (≈ 49.4 µM) | 18.8 (≈ 49.4 µM) | 150 (≈ 395 µM) |
| CN1C(NNC(=O)c2ccc(-c3cccc([N+](=O)[O-])c3)o2)=NS(=O)(=O)c2ccccc21 | > 100 | 18.8 (≈ 42.5 µM) | 37.5 (≈ 85 µM) | 18.8 (≈ 42.5 µM) | 75 (≈ 170 µM) |
| CN1C(N/N=C\c2ccc([N+](=O)[O-])o2)=NS(=O)(=O)c2ccccc21 | 8 (≈ 22.9 µM) | 18.8 (≈ 53.7 µM) | 37.5 (≈ 107 µM) | 37.5 (≈ 107 µM) | 150 (≈ 429 µM) |
| CO[C@H]1/C=C/O[C@@]2(C)Oc3c(C)c(O)c4c(O)c(c(/C=N/N5CCN(C)CC5)c(O)c4c3C2=O)NC(=O)/C(C)=C\C=C\[C@H](C)[C@H](O)[C@@H](C)[C@@H](O)[C@@H](C)[C@H](OC(C)=O)[C@@H]1C [RIFAMPIN] | 0.12 (≈ 0.146 µM) |  |  |  |  |
| CC(C)N1C(N/N=C\c2ccc([N+](=O)[O-])s2)=NS(=O)(=O)c2ccccc21 | 4 (≈ 10.2 µM) | 18.8 (≈ 47.7 µM) | 18.8 (≈ 47.7 µM) | 18.8 (≈ 47.7 µM) | 150 (≈ 381 µM) |
| O=C(NNC1=NS(=O)(=O)c2ccccc2N1c1ccccc1)c1ccc(-c2ccccc2[N+](=O)[O-])o1 | > 100 | 75 (≈ 149 µM) | 37.5 (≈ 74.5 µM) | 18.8 (≈ 37.2 µM) | 150 (≈ 298 µM) |
| CN1C(NNC(=O)c2ccc(-c3ccccc3[N+](=O)[O-])o2)=NS(=O)(=O)c2cc(Cl)ccc21 | > 100 | 18.8 (≈ 39.4 µM) | 37.5 (≈ 78.8 µM) | 75 (≈ 158 µM) | 150 (≈ 315 µM) |
| O=C1CN(/N=C/c2ccc([N+](=O)[O-])o2)C(=O)N1 [NITROFURANTOIN] |  | 18.8 (≈ 78.7 µM) | 18.8 (≈ 78.7 µM) | 18.8 (≈ 78.7 µM) | 150 (≈ 630 µM) |
| O=C(NNC1=NS(=O)(=O)c2ccccc2N1c1ccccc1)c1ccc([N+](=O)[O-])o1 | 8 (≈ 18.7 µM) | 18.8 (≈ 43.9 µM) | 75 (≈ 175 µM) | 37.5 (≈ 87.7 µM) | 150 (≈ 351 µM) |
| O=[N+]([O-])c1ccc(/C=N\NC2=NS(=O)(=O)c3ccccc3N2c2ccccc2)o1 | 1 (≈ 2.43 µM) | 37.5 (≈ 91.2 µM) | 37.5 (≈ 91.2 µM) | 75 (≈ 182 µM) | 150 (≈ 365 µM) |
| NNC(=O)c1ccncc1 [ISONIAZID] | 0.5 (≈ 3.65 µM) |  |  |  |  |
| O=C(NNC1=NS(=O)(=O)c2ccccc2N1c1ccccc1)c1ccc(-c2cccc([N+](=O)[O-])c2)o1 | > 100 | 18.8 (≈ 37.2 µM) | 37.5 (≈ 74.5 µM) | 18.8 (≈ 37.2 µM) | 150 (≈ 298 µM) |
| CCN1C(NNC(=O)c2ccc(-c3ccccc3[N+](=O)[O-])o2)=NS(=O)(=O)c2ccccc21 | > 100 | 18.8 (≈ 41.2 µM) | 18.8 (≈ 41.2 µM) | 9.37 (≈ 20.6 µM) | 150 (≈ 329 µM) |
| CCN1C(NNC(=O)c2ccc(-c3cccc([N+](=O)[O-])c3)o2)=NS(=O)(=O)c2ccccc21 | > 100 | 75 (≈ 165 µM) | 37.5 (≈ 82.3 µM) | 75 (≈ 165 µM) | 150 (≈ 329 µM) |
| CN1C(NNC(=O)c2ccc(-c3ccccc3[N+](=O)[O-])o2)=NS(=O)(=O)c2ccccc21 | > 100 | 37.5 (≈ 85 µM) | 37.5 (≈ 85 µM) | 18.8 (≈ 42.5 µM) | 75 (≈ 170 µM) |
